Test results as given in paper PMC5524692, “Establishing a yeast-based screening system for discovery of human GLUT5 inhibitors and activators” (Scientific Reports, 2017).
Positions count from the first letter of the chain named. Read-outs that look alike come from different tables or passages of the source.

Key:
GLUT5 [1] = target: T1, GLUT5 (Homo sapiens, UniProt P22732, S76I); assay: inhibition of […]-fructose uptake in hxt0 yeast cells expressing GLUT5; assay type: cell-based
T1 construct: gene SLC2A5; GLUT5tr (truncated for the first seven amino acids at the N-terminus)
T1 sequence (P22732 8-501 S76I): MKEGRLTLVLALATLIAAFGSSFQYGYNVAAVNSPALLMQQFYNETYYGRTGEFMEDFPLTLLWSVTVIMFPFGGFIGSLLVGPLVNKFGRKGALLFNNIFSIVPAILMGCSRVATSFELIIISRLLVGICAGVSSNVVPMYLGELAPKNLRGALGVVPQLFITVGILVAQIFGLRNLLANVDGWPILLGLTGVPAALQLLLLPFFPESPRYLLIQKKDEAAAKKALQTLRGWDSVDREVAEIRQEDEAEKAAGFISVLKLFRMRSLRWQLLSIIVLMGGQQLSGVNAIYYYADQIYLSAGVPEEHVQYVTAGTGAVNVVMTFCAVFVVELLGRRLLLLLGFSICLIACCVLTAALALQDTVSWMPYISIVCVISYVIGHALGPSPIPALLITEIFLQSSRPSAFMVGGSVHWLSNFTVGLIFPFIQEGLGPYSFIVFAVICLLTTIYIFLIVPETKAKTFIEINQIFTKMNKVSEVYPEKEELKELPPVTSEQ

GLUT5 [2] = target: T2, GLUT5 (Homo sapiens, UniProt P22732, S72Y); assay: as above; assay type: cell-based
T2 construct: gene SLC2A5; GLUT5tr (truncated for the first seven amino acids at the N-terminus)
T2 sequence (P22732 8-501 S72Y): T1 sequence (P22732 8-501 S76I) with S65Y, I69S

| IC50 (GLUT5 [1]; read-out: IC50 of MSNBA) | IC50 (GLUT5 [2]; read-out: IC50 of MSNBA) | Structure (SMILES) | IC50 (GLUT5 [1]; read-out: IC50 of ECG) | IC50 (GLUT5 [2]; read-out: IC50 of ECG) |
| --- | --- | --- | --- | --- |
| – | – | O=C(O[C@@H]1Cc2c(O)cc(O)cc2O[C@@H]1c1ccc(O)c(O)c1)c1cc(O)c(O)c(O)c1 [ECG, (−)-epicatechin-gallate] | 140 ± 11 µM | 180 ± 11 µM |
| 6.3 ± 0.7 µM | 26.6 ± 6.7 µM | CS(=O)(=O)c1ccc(Nc2ccc3c(c2)OCO3)c([N+](=O)[O-])c1 [MSNBA, N-[4-(methylsulfonyl)-2-nitrophenyl]-1,3-benzodioxol-5-amine] | – | – |
